{"source": "patent US7863446B2", "about": "“Heterocycles” (Orchid Research Laboratories Limited, priority 2006, dated 2011)", "key": {"TNF-α [1]": {"tested_on": "TNF-α", "assay": "In vitro measurement of TNF-α in human PBMC (LPS stimulated)", "type": "cell-based", "procedure,_shortened": "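Healthy-volunteer PBMC (0.5 million/well) in RPMI were pre-incubated with compound 15 min at 37 °C. They were then stimulated with E. coli B4 LPS 1 μg/ml for 18 h at 37 °C, 5% CO2. TNF-α in culture medium was measured by ELISA.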"}, "TNF-α [2]": {"tested_on": "TNF-α", "assay": "LPS induced sepsis for measurement of TNF-α inhibition in mice", "type": "in vivo", "settings": "Mus musculus; TNF alpha inhibition in mice sepsis model", "method": "LPS Induced Sepsis for Measurement of TNF-α Inhibition in Mice\nThe LPS induced sepsis model in mice was performed as described by Les sekut et al (J Lab Clin Med 1994; 124:813-20). Female Swiss albino mice were selected and the body weights were equivalent within each group. The mice were fasted for 20 hours with free access to water. The mice were dosed orally with the test compound suspended in vehicle containing 0.5% Tween 80 in 0.25% Carboxy-methylcellulose sodium salt. The control mice were administered the vehicle alone. After 30 minutes of oral dosing, mice were injected with 500 μg of Lipopolysaccharide (Escherichia coli, LPS: B4 from Siga) in phosphate buffer saline solution into the intraperitoneal cavity of the mice. After 90 minutes of LPS administration mice were bled via retro-orbital sinus puncture. Blood samples were stored overnight at 4° C. Serum samples were collected by centrifuging the samples at 4000 rpm for 15 minutes at 4° C. Immediately the serum samples were analysed for TNF-α levels using commercially available mouse TNF-α ELISA kit (Amersham Biosciences) and assay was performed by the manufacturer instruction.\nED50 Measurement of TNF alpha Inhibition in Mice Sepsis Model"}, "Male Balbc mice": {"tested_on": "Male Balbc mice", "assay": "IBD-DSS model (DSS induced colitis)", "type": "in vivo", "settings": "Day 1 to 6, mice", "method": "Inhibitory Activity in IBD-DSS Model\nDSS Induced colitis test was performed as described by Axelsson et al., 1998. Male Balbc mice were selected in the age of 7-8 weeks for the study. Colitis in mice was induced by providing DSS (2%) in the drinking water from day 1 to 6. Mice were dosed from Day 1 to 6 with test compound suspended in vehicle containing 0.25% carboxymethyl cellulose and 0.5% Tween 80. The control animals received vehicle alone. Body weight and disease activity index was recorded daily during the experiment. After 6 days of treatment, animals were sacrificed; colon weight and colon length was recorded."}, "Female Balb C": {"tested_on": "Female Balb C", "assay": "Psoriasis model (oxazolone induced dermatitis in mice)", "type": "in vivo", "settings": "topical on the ear, 24 hours after oxazolone", "method": "Inhibitory Activity in Psoriasis Model\nOxazolone induced dermatitis in mice was performed as described in the literature. Female Balb C were selected in the age of 6-7 weeks for the study and 20-25 g. Mice were sensitized with oxazolone (15%) from Day 1 to day 6 by applying it on the shaved abdomen. Elicitation was done with oxazolone (2%) on the ear on day 7. Test compounds were applied topically on the ear 15 minutes and 6 hours post oxazolone application on day 7. 24 hours after oxazolone application, ear thickness is measured and ear were excised under anesthesia and weighed."}}, "data": [{"smiles": "NS(=O)(=O)c1cccc(-c2c(-c3ccc(F)cc3)nc(C(F)(F)F)nc2-n2ccnc2)c1", "note": "[Example 80, 3-[4-(4-Fluorophenyl)-6-(1H-imidazol-1-yl)-2-(trifluoromethyl)pyrimidin-5-yl]benzenesulfonamide]", "values": [{"measurement": "inhibition at 1 µM", "setting": "TNF-α [1]; 1 μM, NA = No activity, read-out: TNF-α Inhibition (%) at Conc. (1 μM)", "result": 30, "unit": "%"}, {"measurement": "inhibition at 10 µM", "setting": "TNF-α [1]; 10 μM, read-out: TNF-α Inhibition (%) at Conc. (10 μM)", "result": 75.3, "unit": "%"}, {"measurement": "ED50", "setting": "TNF-α [2]", "result": 2.13, "unit": "mg/kg"}, {"measurement": "IBD-DSS Model % Inhibition of DAI at 50 mg/kg", "setting": "Male Balbc mice", "result": 35.94, "unit": "%"}, {"measurement": "Psoriasis-acute-Oxazolone induced dermatitis % inhibition Ear Thick", "setting": "Female Balb C", "result": 19.2, "unit": "%"}, {"measurement": "Psoriasis-acute-Oxazolone induced dermatitis % inhibition Ear Wt", "setting": "Female Balb C", "result": 18.9, "unit": "%"}]}]}
